{
  "source": "PubChem BioAssay AID2060883",
  "about": "(Molecular Pharmacology Branch, DTP, NCI, 2025);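 note: viability read after seven days of compound exposure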",
  "tested_on": "843782-103-R-J1-PDC complex spheroid viability",
  "test": "Anticancer human tumor 843782-103-R-J1-PDC patient-derived lung adenocarcinoma cell line growth inhibition [RAS]",
  "conditions": "for IC50: curve of first compound; for viability, T/C: stronger effect = lower value",
  "in_short": "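Agents were tested in combination matrices in half-log decrements from a top concentration at or near clinical Cmax (10 microM if undetermined). Targets were multi-cell spheroids of tumour lines plus HUVEC and MSC stromal cells.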",
  "data": [
    {"smiles": "CCc1c2c(nc3ccc(O)cc13)-c1cc3c(c(=O)n1C2)COC(=O)[C@]3(O)CC", "note": "+ C=CC(=O)N1CCN(c2nc(OCC3CCCN3C)nc3c(F)c(-c4nc(N)cc(C)c4C(F)(F)F)c(Cl)cc23)C(C)C1", "values": [
      {"measurement": "IC50", "setting": "second compound 0.00316 µM", "result": 1.67, "unit": "nM"},
      {"measurement": "IC50", "setting": "second compound 0.01 µM", "result": 1.52, "unit": "nM"},
      {"measurement": "IC50", "setting": "second compound 0.0316 µM", "result": 1.56, "unit": "nM"},
      {"measurement": "IC50", "setting": "second compound 0.1 µM", "result": 1.56, "unit": "nM"},
      {"measurement": "IC50", "setting": "second compound 0.316 µM", "result": 1.54, "unit": "nM"},
      {"measurement": "IC50", "setting": "second compound 1 µM", "result": 1.52, "unit": "nM"},
      {"measurement": "viability, T/C", "setting": "second compound 0.00316 µM, first compound 0.000949 µM", "result": 80.4, "unit": "%"},
      {"measurement": "viability, T/C", "setting": "second compound 0.00316 µM, first compound 0.003 µM", "result": 18.2, "unit": "%"},
      {"measurement": "viability, T/C", "setting": "second compound 0.00316 µM, first compound 0.00949 µM", "result": 6.35, "unit": "%"},
      {"measurement": "viability, T/C", "setting": "second compound 0.00316 µM, first compound 0.03 µM", "result": 2.5, "unit": "%"},
      {"measurement": "viability, T/C", "setting": "second compound 0.00316 µM, first compound 0.0949 µM", "result": 1.18, "unit": "%"},
      {"measurement": "viability, T/C", "setting": "second compound 0.00316 µM, first compound 0.3 µM", "result": 0.74, "unit": "%"},
      {"measurement": "viability, T/C", "setting": "second compound 0.01 µM, first compound 0.000949 µM", "result": 72.8, "unit": "%"},
      {"measurement": "viability, T/C", "setting": "second compound 0.01 µM, first compound 0.003 µM", "result": 16.8, "unit": "%"},
      {"measurement": "viability, T/C", "setting": "second compound 0.01 µM, first compound 0.00949 µM", "result": 8.52, "unit": "%"},
      {"measurement": "viability, T/C", "setting": "second compound 0.01 µM, first compound 0.03 µM", "result": 3.04, "unit": "%"},
      {"measurement": "viability, T/C", "setting": "second compound 0.01 µM, first compound 0.0949 µM", "result": 0.93, "unit": "%"},
      {"measurement": "viability, T/C", "setting": "second compound 0.01 µM, first compound 0.3 µM", "result": 0.76, "unit": "%"},
      {"measurement": "viability, T/C", "setting": "second compound 0.0316 µM, first compound 0.000949 µM", "result": 72.6, "unit": "%"},
      {"measurement": "viability, T/C", "setting": "second compound 0.0316 µM, first compound 0.003 µM", "result": 19.5, "unit": "%"},
      {"measurement": "viability, T/C", "setting": "second compound 0.0316 µM, first compound 0.00949 µM", "result": 7.44, "unit": "%"},
      {"measurement": "viability, T/C", "setting": "second compound 0.0316 µM, first compound 0.03 µM", "result": 2.35, "unit": "%"},
      {"measurement": "viability, T/C", "setting": "second compound 0.0316 µM, first compound 0.0949 µM", "result": 1.24, "unit": "%"},
      {"measurement": "viability, T/C", "setting": "second compound 0.0316 µM, first compound 0.3 µM", "result": 0.8, "unit": "%"},
      {"measurement": "viability, T/C", "setting": "second compound 0.1 µM, first compound 0.000949 µM", "result": 73.6, "unit": "%"},
      {"measurement": "viability, T/C", "setting": "second compound 0.1 µM, first compound 0.003 µM", "result": 18.1, "unit": "%"},
      {"measurement": "viability, T/C", "setting": "second compound 0.1 µM, first compound 0.00949 µM", "result": 7.09, "unit": "%"},
      {"measurement": "viability, T/C", "setting": "second compound 0.1 µM, first compound 0.03 µM", "result": 1.96, "unit": "%"},
      {"measurement": "viability, T/C", "setting": "second compound 0.1 µM, first compound 0.0949 µM", "result": 1.46, "unit": "%"},
      {"measurement": "viability, T/C", "setting": "second compound 0.1 µM, first compound 0.3 µM", "result": 0.64, "unit": "%"},
      {"measurement": "viability, T/C", "setting": "second compound 0.316 µM, first compound 0.000949 µM", "result": 70.7, "unit": "%"},
      {"measurement": "viability, T/C", "setting": "second compound 0.316 µM, first compound 0.003 µM", "result": 21.1, "unit": "%"},
      {"measurement": "viability, T/C", "setting": "second compound 0.316 µM, first compound 0.00949 µM", "result": 7.83, "unit": "%"},
      {"measurement": "viability, T/C", "setting": "second compound 0.316 µM, first compound 0.03 µM", "result": 2.85, "unit": "%"},
      {"measurement": "viability, T/C", "setting": "second compound 0.316 µM, first compound 0.0949 µM", "result": 1.34, "unit": "%"},
      {"measurement": "viability, T/C", "setting": "second compound 0.316 µM, first compound 0.3 µM", "result": 0.99, "unit": "%"},
      {"measurement": "viability, T/C", "setting": "second compound 1 µM, first compound 0.000949 µM", "result": 67.7, "unit": "%"},
      {"measurement": "viability, T/C", "setting": "second compound 1 µM, first compound 0.003 µM", "result": 24.5, "unit": "%"},
      {"measurement": "viability, T/C", "setting": "second compound 1 µM, first compound 0.00949 µM", "result": 7.99, "unit": "%"},
      {"measurement": "viability, T/C", "setting": "second compound 1 µM, first compound 0.03 µM", "result": 3.23, "unit": "%"},
      {"measurement": "viability, T/C", "setting": "second compound 1 µM, first compound 0.0949 µM", "result": 1.57, "unit": "%"},
      {"measurement": "viability, T/C", "setting": "second compound 1 µM, first compound 0.3 µM", "result": 0.98, "unit": "%"}
    ]}
  ]
}
